From US20210395210A1, “INHIBITION OF BACTERIAL CHAPERONIN SYSTEMS” (THE TRUSTEES OF INDIANA UNIVERSITY, priority 2018, published 2021)
Read-outs that look alike come from different tables or passages of the source.

What was measured:
[1] = molecular target: T1, native MDH (Sus scrofa, UniProt P00346); assay: Counter-screen for inhibition of native MDH enzymatic activity; assay type: biochemical, pig; settings: for inhibition of native MDH enzymatic activity (in words): false-positive counter-screen
T1 construct: soluble pig heart MDH from Roche, product #10127248001; purchased Roche 10127248001; host or cells: pig heart
T1 sequence (P00346 25-338): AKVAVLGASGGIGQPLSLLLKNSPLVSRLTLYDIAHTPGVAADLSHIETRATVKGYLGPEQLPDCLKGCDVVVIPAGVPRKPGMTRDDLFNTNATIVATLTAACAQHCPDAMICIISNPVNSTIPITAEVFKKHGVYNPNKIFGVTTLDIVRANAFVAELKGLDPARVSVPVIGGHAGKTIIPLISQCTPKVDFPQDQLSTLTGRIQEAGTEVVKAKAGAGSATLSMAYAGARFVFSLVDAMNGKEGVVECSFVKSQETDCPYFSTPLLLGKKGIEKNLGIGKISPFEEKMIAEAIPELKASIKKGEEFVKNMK
Experimental: Reagent Preparations & Assay Protocol: This assay was performed as described above for the GroEL/ES-dMDH refolding assay; however, the assay protocol differed in the sequence of compound addition to the assay plates. The refolding reactions were allowed to proceed for 45 min at 37° C. in the absence of test compounds (complete refolding of MDH occurs), then quenched with the EDTA stock. Compounds were then pin-transferred into the plates after the EDTA quenching step; thus, compounds effects are only possible by inhibiting the fully-refolded MDH reporter substrate. […] A340 nm measurements were recorded at 0.5 minutes (start point) and at successive time points until the amount of NADH consumed reached ˜90% (end point, generally between 20-35 minutes). Compounds were tested in 8-point, 3-fold dilution series (62.5 μM to 29 nM during the reporter reaction) in clear, flat-bottom 384-well microtiter plates. DMSO was used as a negative control, and previously discovered native MDH inhibitors were used as positive controls. […] Results presented represent the averages of IC50 values obtained from at least quadriplicate (duplicate of duplicate) replicates.

[2] = tested on: Enterococcus faecium (ATCC 19434); assay: Bacterial proliferation assay, E. faecium; assay type: cell-based
From the text: (§1) Bacterial Strains: Enterococcus faecium—(Orla-Jensen) Schleifer and Kilpper-Balz strain NCTC 7171 (ATCC 19434); Drug sensitive Staphylococcus aureus—Rosenbranch strain Seattle 1945 (ATCC 25923); Methicillin resistant S. aureus (MRSA)—Rosenbach strain HPV107 (ATCC BAA-44); Klebsiella Pneumonia—(Schroeter) Trevisan strain NCTC 9633 (ATCC 13883); Acinetobacter baumannii—Bouvet and Grimont strain 2208 (ATCC 19606); Pseudomonas aeruginosa—(Schroeter) Migula strain NCTC 10332 (ATCC 10145); Enterobacter cloacae—E. cloacae, subsp. cloacae (Jordan) Hormaeche and Edwards strain CDC 442-68 (ATCC 13047).
(§2) Growth Media: All bacteria were grown in Brain Heart Infusion (BHI) broth/agar (Becton, Dickinson and Company). All liquid cultures were grown in BHI media supplemented with 25 mg/L Ca^2+ and 12.5 mg/L Mg^2+ to mimic free physiological concentrations of these cations. A 10 mg/mL Ca^2+ stock solution was prepared by dissolving 3.68 g of CaCl2.2H2O in 100 mL of deionized water, and a 10 mg/mL Mg^2+ stock solution was prepared by dissolving 8.36 g of MgCl2.6H2O in 100 mL deionized water. Both stock solutions were filter-sterilized using 0.2 μm pore size cellulose-acetate filters. 2.5 mL of the sterile 10 mg/mL Ca^2+ stock and 1.25 mL of the sterile 10 mg/mL Mg^2+ stock solutions were added per 1 L of autoclaved BHI medium to obtain 25 mg/L Ca^2+ and 12.5 mg/L Mg^2+ ions, respectively.
(§3) General Assay Protocol: Stock bacterial cultures were streaked onto BHI agar plates and grown overnight at 37° C. Fresh aliquots of broth were inoculated with single bacterial colonies and the cultures were grown overnight at 37° C. with shaking (240 rpm) in cation adjusted BHI media. The following morning, the overnight cultures were sub-cultured (1:5 dilution) into fresh aliquots of cation adjusted BHI media and grown at 37° C. for 1-2 hours with shaking. After 2 h, cultures were diluted into fresh media to achieve final OD600 readings of 0.017. Aliquots of these diluted cultures (30 μL) were added to clear, flat-bottom, 384-well polystyrene plates that were stamped with 0.5 μL of test compounds in 20 μL media. […] Plates were sealed with “Breathe Easy” oxygen permeable membranes (Diversified Biotech) and left to incubate at 37° C. without shaking (stagnant assay). OD600 nm readings were taken at either 6-8 h (S. aureus, MRSA, K. pneumonia, E. cloacae, and P. aeruginosa) or 24 h (E. faecium and A. baumannii). A second set of baseline control plates were prepared analogously, but without any bacteria added, to correct for possible compound absorbance and/or precipitation. Plates were then read at 600 nm using a Molecular Devices SpectraMax Plus384 microplate reader. […] Results presented represent the averages of EC50 values obtained from at quadriplicate (duplicate of duplicate) replicates.

[3] = tested on: Methicillin resistant S. aureus (MRSA) (ATCC BAA-44); assay: Bacterial proliferation assay, MRSA; assay type: cell-based, Staphylococcus aureus; settings: Staphylococcus aureus
From the text: as §1, §2, §3

[4] = tested on: Klebsiella Pneumonia (ATCC 13883); assay: Bacterial proliferation assay, K. pneumoniae; assay type: cell-based
From the text: as §1, §2, §3

[5] = tested on: Acinetobacter baumannii (ATCC 19606); assay: Bacterial proliferation assay, A. baumannii; assay type: cell-based
From the text: as §1, §2, §3

[6] = tested on: Pseudomonas aeruginosa (ATCC 10145); assay: Bacterial proliferation assay, P. aeruginosa; assay type: cell-based
From the text: as §1, §2, §3

[7] = log of IC50 (μM scale), with standard deviation, read-out: log(IC50) Native MDH Reporter (converted)
[8] = read-out: Biochemical Assay IC50 Native MDH Reporter
[9] = ATCC19434, OD600 at 24 h, read-out: Bacterial Proliferation EC50 E. faecium
[10] = ATCC19434, log of EC50 (μM scale), with standard deviation, read-out: log(EC50) Bacterial Proliferation Assay C. faecium (converted)
[11] = MRSA, log of EC50 (μM scale), with standard deviation, read-out: log(EC50) Bacterial Proliferation Assay S. aureus Resistant (converted)
[12] = ATCC13883, OD600 at 6-8 h, read-out: Bacterial Proliferation EC50 K. pneumoniae
[13] = ATCC13883, log of EC50 (μM scale), with standard deviation, read-out: log(EC50) Bacterial Proliferation Assay K. pneumoniae (converted)
[14] = ATCC19606, OD600 at 24 h, read-out: Bacterial Proliferation EC50 A. baumannii
[15] = ATCC19606, log of EC50 (μM scale), with standard deviation, read-out: log(EC50) Bacterial Proliferation Assay A. baumannii (converted)
[16] = ATCC10145, OD600 at 6-8 h, read-out: Bacterial Proliferation EC50 P. aeruginosa
[17] = ATCC10145, log of EC50 (μM scale), with standard deviation, read-out: log(EC50) Bacterial Proliferation Assay P. aeruginosa (converted)
[18] = ATCC19434, 24 h, read-out: Bacterial Proliferation EC50 E. faecium
[19] = ATCC19434, read-out: log(EC50) Bacterial Proliferation Assay C. faecium (converted)
[20] = read-out: Bacterial Proliferation EC50 S. aureus Resistant
[21] = read-out: log(EC50) Bacterial Proliferation Assay S. aureus Resistant (converted)
[22] = ATCC13883, read-out: Bacterial Proliferation EC50 K. pneumoniae
[23] = ATCC13883, read-out: log(EC50) Bacterial Proliferation Assay K. pneumoniae (converted)
[24] = ATCC19606, 24 h, read-out: Bacterial Proliferation EC50 A. baumannii
[25] = ATCC19606, read-out: log(EC50) Bacterial Proliferation Assay A. baumannii (converted)
[26] = ATCC10145, read-out: Bacterial Proliferation EC50 P. aeruginosa
[27] = ATCC10145, read-out: log(EC50) Bacterial Proliferation Assay P. aeruginosa (converted)
[28] = MRSA, OD600 at 6-8 h, read-out: Bacterial Proliferation EC50 S. aureus Resistant

| SMILES | IC50 [1, 7] [µM] | IC50 [1, 8] [µM] | EC50 [2, 9] [µM] | EC50 [2, 10] [µM] | EC50 [3, 11] [µM] | EC50 [4, 12] [µM] | EC50 [4, 13] [µM] | EC50 [5, 14] [µM] | EC50 [5, 15] [µM] | EC50 [6, 16] [µM] | EC50 [6, 17] [µM] | inhibition of native MDH enzymatic activity (in words) [1] | EC50 [2, 18] [µM] | EC50 [2, 19] [µM] | EC50 [3, 21] [µM] | EC50 [4, 22] [µM] | EC50 [4, 23] [µM] | EC50 [5, 24] [µM] | EC50 [5, 25] [µM] | EC50 [6, 26] [µM] | other results |
| --- | --- | --- | --- | --- | --- | --- | --- | --- | --- | --- | --- | --- | --- | --- | --- | --- | --- | --- | --- | --- | --- |
| COc1c(Br)cc(Br)cc1C(=O)Nc1ccc(Sc2nc3ccccc3s2)cc1 [Compound 33, N-(4-(Benzo[d]thiazol-2-ylthio)phenyl)-3,5-dibromo-2-methoxybenzamide] | > 63.1 | > 63 | > 100 | > 100 | > 100 | > 100 | > 100 | > 100 | > 100 | > 100 | > 100 |  |  |  |  |  |  |  |  |  |  |
| O=C(Nc1ccc(Sc2nc3ccccc3s2)c(Cl)c1)c1cc(Br)ccc1O [Compound 3, N-(4-(Benzo[d]thiazol-2-ylthio)-3-chlorophenyl)-5-bromo-2-hydroxybenzamide] | > 63.1 | > 63 |  |  |  |  |  |  |  |  |  | inactive against the reporter enzymes | 15 | 14.8 | 0.17 | > 100 | > 100 | > 100 | > 100 | > 100 | EC50 [3, 20]: 0.17 µM; EC50 [6, 27]: > 100 µM |
| O=C(Nc1ccc(Sc2nc3ccccc3s2)cc1)c1cc(Br)ccc1O [Compound 7, N-(4-(Benzo[d]thiazol-2-ylthio)phenyl)-5-bromo-2-hydroxybenzamide] | > 63.1 | > 63 |  |  |  |  |  |  |  |  |  | inactive against the reporter enzymes | 19 | 19.5 | 0.141 | > 100 | > 100 | > 100 | > 100 | > 100 | EC50 [3, 20]: 0.14 µM; EC50 [6, 27]: > 100 µM |
| O=C(Nc1cccc(Cl)c1)c1cc(Br)cc(Br)c1 [Compound 23, 3,5-Dibromo-N-(3-chlorophenyl)benzamide] | > 63.1 | > 63 | > 100 | > 100 | 11.7 | > 100 | > 100 | > 100 | > 100 | > 100 | > 100 |  |  |  |  |  |  |  |  |  | EC50 [3, 28]: 12 µM |
| CC1(C)S[C@@H]2[C@H](NC(=O)[C@H](N)c3ccccc3)C(=O)N2[C@H]1C(=O)O [Ampicillin, ampicillin, reference compound] | > 63.1 | > 63 | 6.9 | 6.92 | > 100 | > 100 | > 100 | > 100 | > 100 | > 100 | > 100 |  |  |  |  |  |  |  |  |  | EC50 [3, 28]: > 100 µM |
| COc1c(Br)cccc1C(=O)Nc1ccc(Sc2nc3ccccc3s2)cc1 [Compound 34, N-(4-(Benzo[d]thiazol-2-ylthio)phenyl)-3-bromo-2-methoxybenzamide] | > 63.1 | > 63 | > 100 | > 100 | > 100 | > 100 | > 100 | > 100 | > 100 | > 100 | > 100 |  |  |  |  |  |  |  |  |  |  |
| COc1ccc(Br)cc1C(=O)Nc1ccccc1 [Compound 43, 5-Bromo-2-methoxy-N-phenylbenzamide] | > 63.1 | > 63 | > 100 | > 100 | > 100 | > 100 | > 100 | > 100 | > 100 | > 100 | > 100 |  |  |  |  |  |  |  |  |  |  |
| Cc1cc(C(C#N)c2ccc(Cl)cc2)c(Cl)cc1NC(=O)c1cc(I)cc(I)c1O (stereo not shown) [Closantel, closantel, reference compound] |  |  |  |  |  |  |  |  |  |  |  | inhibit native MDH | 1.2 | 1.23 | 0.468 | > 100 | > 100 | > 100 | > 100 | > 100 | log(IC50) Native MDH Reporter ([1]; log of IC50 (μM scale), with standard deviation): 0.79 ± 0.17; EC50 [6, 27]: > 100 µM |
